Key:
Assay type in all cases: in vivo
[1] = system: velvetleaf (Abutilon theophrasti); test: Test E pre-/postemergence: velvetleaf; conditions: Preemergence, scale 0 to 100
Excerpt: Seeds of plant species selected from corn (Zea mays), soybean (Glycine max), velvetleaf (Abutilon theophrasti), lambsquarters (Chenopodium album), poinsettia, wild (wild poinsettia, Euphorbia heterophylla), pigweed, palmer (palmer pigweed, Amaranthus palmeri), waterhemp (common waterhemp, Amaranthus rudis), smartweed (ladysthumb smartweed, Polygonum persicaria), surinam grass (Brachiaria decumbens), crabgrass, large (large crabgrass, Digitaria sanguinalis), crabgrass, Brazil (Brazilian crabgrass, Digitaria horizontalis), panicum, fall (fall panicum, Panicum dichotomiflorum), foxtail, giant (giant foxtail, Setaria faberii), foxtail, green (green foxtail, Setaria viridis), goosegrass (Eleusine indica), johnsongrass (Sorghum halepense), ragweed (common ragweed, Ambrosia elation), barnyardgrass (Echinochloa crus-galli), sandbur (southern sandbur, Cenchrus echinatus), arrowleaf sida (Sida rhombifolia), ryegrass, Italian (Italian ryegrass, Lolium multiflorum), dayflower, (VA) (Virginia dayflower, Commelina virginica), field bindweed (Convolvulus arvensis), cocklebur (common cocklebur, Xanthium strumarium), morningglory (Ipomoea coccinea), nightshade (eastern black nightshade, Solanum ptycanthum), kochia (Kochia scoparia), nutsedge, yellow (yellow nutsedge, Cyperus esculentus) and beggarticks (hairy beggarticks, Bidens pilosa) were planted into a silt loam soil and treated preemergence with test chemicals formulated in a non-phytotoxic solvent mixture which included a surfactant. At the same time, plants selected from these crop and weed species were planted in pots containing a growing medium comprising spaghnum peat moss, vermiculite, wetting agent and starter nutrients and treated with postemergence applications of some of the test chemicals formulated in the same manner. Plants ranged in height from 2 to 18 cm for postemergence treatments (1- to 4-leaf stage).
(§1) Treated plants and controls were maintained in a greenhouse for 14 to 21 days, after which time all species were compared to controls and visually evaluated. Plant response ratings, summarized in Table E, are based on a scale of 0 to 100 where 0 is no effect and 100 is complete control. A dash (-) response means no test result.

[2] = system: pigweed (Amaranthus retroflexus); test: Test F postemergence: pigweed; conditions: scale 0 to 100
Excerpt: (§2) Seeds of plant species selected from corn (Zea mays), soybean (Glycine max), velvetleaf (Abutilon theophrasti), lambsquarters (Chenopodium album), poinsettia, wild (wild poinsettia, Euphorbia heterophylla), pigweed, palmer (palmer pigweed, Amaranthus palmeri), waterhemp (common waterhemp, Amaranthus rudis), surinam grass (Brachiaria decumbens), crabgrass, Brazil (Brazilian crabgrass, Digitaria horizontalis), panicum, fall (fall panicum Panicum dichotomiflorum), crabgrass, large (large crabgrass, Digitaria sanguinalis), foxtail, giant (giant foxtail, Setaria faberii), foxtail, green (green foxtail Setaria viridis), goosegrass (Eleusine indica), ragweed (common ragweed, Ambrosia elatior), barnyardgrass (Echinochloa crus-galli), sandbur (southern sandbur, Cenchrus echinatus), arrowleaf sida (Sida rhombifolia), ryegrass, Italian (Italian ryegrass, Lolium multiflorum), dayflower, VA (Virginia (VA) dayflower, Commelina virginica), field bindweed (Convolvulus arvensis), cocklebur (common cocklebur, Xanthium strumarium), morningglory (Ipomoea coccinea), nightshade (eastern black nightshade, Solanum ptycanthum), kochia (Kochia scoparia), nutsedge, yellow (yellow nutsedge, Cyperus esculentus), johnsongrass (Sorghum halepense), smartweed (ladysthumb smartweed, Polygonum persicaria), and beggarticks (hairy beggarticks, Bidens pilosa), were planted into a silt loam soil and treated preemergence with test chemicals formulated in a non-phytotoxic solvent mixture which included a surfactant. At the same time, plants selected from these crop and weed species and also pigweed (Amaranthus retroflexus), waterhemp_RES1 (ALS/Triazine resistant common waterhemp, Amaranthus rudis) and waterhemp_RES2 (ALS/HPPD resistant common waterhemp, Amaranthus rudis) were planted in pots containing a planting medium comprising spaghnum peat moss, vermiculite, wetting agent and starter nutrients treated with postemergence applications of some of the test chemicals formulated in the same manner. Plants ranged in height from 2 to 18 cm for postemergence treatments (1- to 4-leaf stage).
as §1

[3] = system: waterhemp_RES2 (ALS/HPPD resistant common waterhemp, Amaranthus rudis); test: Test F postemergence: waterhemp_RES2; conditions: scale 0 to 100
Excerpt: as §2, §1

[4] = system: smartweed (ladysthumb smartweed, Polygonum persicaria); test: Test F pre-/postemergence: smartweed
Excerpt: as §2, §1

Waterhemp = test: Test C preemergence: waterhemp; conditions: scale 0 (no effect) to 100 (complete control)
[5] = Preemergence, 16 g ai/ha, scale 0 to 100, 0 no effect, 100 complete control
[6] = Preemergence, 31 g ai/ha, scale 0 to 100, 0 no effect, 100 complete control
[7] = Preemergence, 125 g ai/ha, scale 0 to 100
[8] = Preemergence, 250 g ai/ha, scale 0 to 100
[9] = Postemergence, 250 g ai/ha, scale 0 to 100
[10] = Postemergence, 31 g ai/ha, scale 0 to 100
[11] = Postemergence, 125 g ai/ha, scale 0 to 100

Cc1nn(-c2ccc(C(F)(F)F)cn2)nc1Oc1ccnc(C(F)(F)F)c1 [Compound 23]
Plant response rating: Velvetleaf ([1]; 16 g ai/ha): 0 | Plant response rating: Velvetleaf ([1]; 31 g ai/ha): 0 | Plant response rating: Velvetleaf ([1]; 62 g ai/ha): 10 | Plant response rating: Velvetleaf ([1]; 125 g ai/ha): 65 | Plant response rating: Velvetleaf ([1]; 250 g ai/ha): 65

CCOc1nn(-c2ccc(F)cc2)nc1Cc1ccnc(C(F)(F)F)c1 [Compound 196, 4-[[5-ethoxy-2-(4-fluorophenyl)-2H-1,2,3-triazol-4-yl]methyl]-2-(trifluoromethyl)pyridine]
Plant response rating, Pigweed ([2]; 8 g ai/ha): 85 | Plant response rating, Pigweed ([2]; 16 g ai/ha): 95 | Plant response rating, Pigweed ([2]; 31 g ai/ha): 95 | Plant response rating, Pigweed ([2]; 62 g ai/ha): 95 | Plant response rating, Pigweed ([2]; 125 g ai/ha): 95 | Plant response rating, Waterhemp, Res2 ([3]; 8 g ai/ha): 90 | Plant response rating, Waterhemp, Res2 ([3]; 16 g ai/ha): 90 | Plant response rating, Waterhemp, Res2 ([3]; 31 g ai/ha): 95 | Plant response rating, Waterhemp, Res2 ([3]; 62 g ai/ha): 95 | Plant response rating, Waterhemp, Res2 ([3]; 125 g ai/ha): 95

CCc1nn(-c2ccc(F)c(F)c2)nc1Oc1ccnc(C(F)(F)F)c1 [Compound 171]
Plant response rating, Smartweed [4, 5]: 0 | Plant response rating, Smartweed [4, 6]: 0 | Plant response rating, Smartweed [4, 7]: 0 | Plant response rating, Smartweed [4, 8]: 5

FC(F)(F)COc1nn(-c2ccc(C(F)(F)F)cc2)nc1Cc1ccnc(C(F)(F)F)c1 [Compound 14, 4-[[5-(2,2,2-trifluoroethoxy)-2-[4-(trifluoromethyl)phenyl]-2H-1,2,3-triazol-4-yl]methyl]-2-(trifluoromethyl)pyridine]
Plant response rating: Velvetleaf ([1]; 16 g ai/ha): 20 | Plant response rating: Velvetleaf ([1]; 31 g ai/ha): 35 | Plant response rating: Velvetleaf ([1]; 62 g ai/ha): 50 | Plant response rating: Velvetleaf ([1]; 125 g ai/ha): 80 | Plant response rating: Velvetleaf ([1]; 250 g ai/ha): 95

CCc1nn(-c2ccc(C(F)(F)F)cc2)nc1Oc1ccnc(C(F)(F)F)c1 [Compound 169]
Plant response rating, Smartweed [4, 9]: 35 | Plant response rating, Smartweed ([4]; Postemergence, 16 g ai/ha, scale 0 to 100): 10 | Plant response rating, Smartweed [4, 10]: 10 | Plant response rating, Smartweed ([4]; Postemergence, 62 g ai/ha, scale 0 to 100): 15 | Plant response rating, Smartweed [4, 11]: 25 | Plant response rating, Smartweed [4, 5]: 0 | Plant response rating, Smartweed [4, 6]: 0 | Plant response rating, Smartweed [4, 7]: 40 | Plant response rating, Smartweed [4, 8]: 95 | Plant response rating, Waterhemp, Res2 ([3]; 16 g ai/ha): 75 | Plant response rating, Waterhemp, Res2 ([3]; 31 g ai/ha): 85 | Plant response rating, Waterhemp, Res2 ([3]; 62 g ai/ha): 95 | Plant response rating, Waterhemp, Res2 ([3]; 125 g ai/ha): 100 | Plant response rating, Waterhemp, Res2 ([3]; 250 g ai/ha): 100

Cc1nn(-c2ccnc(Cl)c2)nc1Cc1ccnc(C(F)(F)F)c1 [Compound 141]
Plant response rating, Pigweed ([2]; 8 g ai/ha): 90 | Plant response rating, Pigweed ([2]; 16 g ai/ha): 95 | Plant response rating, Pigweed ([2]; 31 g ai/ha): 95 | Plant response rating, Pigweed ([2]; 62 g ai/ha): 95 | Plant response rating, Pigweed ([2]; 125 g ai/ha): 95 | Plant response rating, Waterhemp, Res2 ([3]; 8 g ai/ha): 85 | Plant response rating, Waterhemp, Res2 ([3]; 16 g ai/ha): 95 | Plant response rating, Waterhemp, Res2 ([3]; 31 g ai/ha): 95 | Plant response rating, Waterhemp, Res2 ([3]; 62 g ai/ha): 95 | Plant response rating, Waterhemp, Res2 ([3]; 125 g ai/ha): 100

CCCc1nn(-c2ccc(F)c(F)c2)nc1Oc1ccnc(C(F)(F)F)c1 [Compound 172]
Plant response rating, Smartweed [4, 9]: 70 | Plant response rating, Smartweed [4, 10]: 30 | Plant response rating, Smartweed [4, 11]: 60 | Plant response rating, Smartweed [4, 6]: 5 | Plant response rating, Smartweed [4, 7]: 50 | Plant response rating, Smartweed [4, 8]: 98

Cc1nn(-c2ccc(C(F)(F)F)c(F)c2)nc1Oc1ccnc(C(F)(F)F)c1 [Compound 148]
Plant response rating, Smartweed [4, 5]: 0 | Plant response rating, Smartweed [4, 6]: 0 | Plant response rating, Smartweed [4, 7]: 75 | Plant response rating, Smartweed [4, 8]: 90

COc1nn(-c2ccc(C(F)(F)F)cc2)nc1Cc1ccnc(C(F)(F)F)c1 [Compound 15, 4-[[5-methoxy-2-[4-(trifluoromethyl)phenyl]-2H-1,2,3-triazol-4-yl]methyl]-2-(trifluoromethyl)pyridine]
Plant response rating: Velvetleaf ([1]; 16 g ai/ha): 20 | Plant response rating: Velvetleaf ([1]; 31 g ai/ha): 30 | Plant response rating: Velvetleaf ([1]; 62 g ai/ha): 65 | Plant response rating: Velvetleaf ([1]; 125 g ai/ha): 65 | Plant response rating: Velvetleaf ([1]; 250 g ai/ha): 95

FCc1nn(-c2ccc(F)cc2)nc1Oc1ccnc(C(F)(F)F)c1 [Compound 160]
Plant response rating, Waterhemp (Waterhemp; 16 g ai/ha): 100

Cc1nn(-c2ccc(C(F)(F)F)cc2)nc1Oc1ccnc(C(F)(F)F)c1 [Compound 120]
Plant response rating: Velvetleaf ([1]; 16 g ai/ha): 15 | Plant response rating: Velvetleaf ([1]; 31 g ai/ha): 30 | Plant response rating: Velvetleaf ([1]; 62 g ai/ha): 35 | Plant response rating: Velvetleaf ([1]; 125 g ai/ha): 50 | Plant response rating: Velvetleaf ([1]; 250 g ai/ha): 65

CCOc1nn(-c2ccc(Cl)cc2)nc1Cc1ccnc(C(F)(F)F)c1 [Compound 188]
Plant response rating, Waterhemp (Waterhemp; 31 g ai/ha): 100
